In patent publication US6342502B1, “Thieno[2,3-d]pyrimidine diones and their use in the treatment of reversible obstructive airways diseases” (AstraZeneca AB, priority 1997, dated 2002) one finds melting point data, which are given here for 34 compounds.

As to `CC(C)Cn1c(=O)[nH]c(=O)c2cc(Cc3cccc4ccccc34)sc21` [Example 3, 1-(2-Methylpropyl)-6-(1-naphthalenylmethyl)thieno[2,3-d]pyrimidine-2,4(1H,3H)-dione], the melting point lay within 189 to 190 °C. For `CC(C)Cn1c(=O)n(C)c(=O)c2cc(C(O)c3cccc(F)c3)sc21` (stereo not shown) [Example 51, 6-[(1-Hydroxy-1-(3-fluorophenyl))methyl]-3-methyl-1l-(2-methylpropyl)thieno[2,3-d]pyrimiidine-2,4-(1H, 3H)-dione], the melting point worked out at 54 °C. `CC(=O)NCCCSc1c(Cc2cccc3ccccc23)sc2c1c(=O)n(C)c(=O)n2CC(C)C` [Example 41] returned a melting point of 114 to 117 °C.

`CC(C)Cn1c(=O)n(C)c(=O)c2cc(Cc3ccccc3)sc21` [Example 12, 6-Benzyl-3-methyl-1-(2-methylpropyl)thieno[2,3-d]pyrimidine-2,4(1H,3H)-dione] came in with a melting point of 72 to 73 °C. With `CC(C)Cn1c(=O)n(C)c(=O)c2c(NC(=O)OCCO)c(Cc3cccc4ccccc34)sc21` [Example 49, 2-Hydroxyethyl [1,2,3,4-tetrahydro-3-methyl-1-(2-methylpropyl)-6-(1-naphthalenylmethyl)-2,4-dioxothieno[2,3-d]pyrimidin-5-yl]carbamate], the melting point lay within 201 to 202 °C. For the compound `CC(C)Cn1c(=O)n(C)c(=O)c2cc(Cc3ccc(N)cc3)sc21` [Example 92, 6-(4-Aminophenylmethyl)-3-methyl-1-(2-methylpropyl)thieno[2,3-d]pyrimidine-2,4-(1H, 3H)-dione], the melting point is 104 °C. Compound `COC(=O)CCCSc1c(Cc2cccc3ccccc23)sc2c1c(=O)n(C)c(=O)n2CC(C)C` [Example 7, Methyl 4-[(1,2,3,4-tetrahydro-3-methyl-1-(2-methylpropyl)-6-(1-naphthalenylmethyl)-2,4-dioxothieno[2,3-d]pyrimidin-5-y)thio]butanoate] came in with a melting point of 111 to 112 °C. `C=C(C)Cn1c(=O)n(C)c(=O)c2cc(Cc3ccc(OC)cc3)sc21` [Example 2, 6-(4-Methoxyphenylmethyl)-3-methyl-1-(2-methyl-2-propenyl)thieno[2,3-d]pyrimidine-2,4(1H,3H)-dione] came in with a melting point of 111 °C. The result for `CC(C)Cn1c(=O)n(C)c(=O)c2c(SCCC(C)O)c(Cc3cccc4ccccc34)sc21` (racemic) [Example 85, (±)-5-[(3-Hydroxybutyl)thio]-3-methyl-1-(2-methylpropyl)-6-(1-naphthalenylmethyl)thieno2,3-d]pyrimidine-2,4(1H,3H)-dione] reads 162 to 163 °C; that for `CC(C)Cn1c(=O)n(C)c(=O)c2cc(Cc3cccc(F)c3)sc21` [Example 52, 6-[(3-Fluorophenyl)methyl]-3-methyl-1-(2-methylpropyl)thieno[2,3-d]pyrimidine-2,4-(1H, 3H)-dione], 76 to 78 °C; that for `CC(C)Cn1c(=O)n(C)c(=O)c2c(Sc3ccc(N)cn3)c(Cc3cccc4ccccc34)sc21` [Example 87, 5-[(5-Amino-2-pyridinyl)thio]-3-methyl-1-(2-methylpropyl)-6-(1-naphthalenylmethyl)thieno[2,3-d]pyrimidine-2,4(1H,3H)-dione], 208 to 209 °C. Turning to `CC(C)n1c(=O)n(C)c(=O)c2cc(Cc3ccccc3)sc21` [Example 13, 3-Methyl-1-(1-methylethyl)-6-(phenylmethyl)thieno[2,3-d]pyrimidine-2,4(1H,3H)-dione], the melting point was in the range of 91 to 93 °C.

The compound `CC(C)Cn1c(=O)n(C)c(=O)c2c(SCCCO)c(C(O)c3cccc4ccccc34)sc21` (racemic) [Example 83, (±) 6-(1-Hydroxy-1-[1-naphthalenyl]methyl)-5-([3-hydroxypropyl]thio)-3-methyl-1-(2-methylpropyl)thieno[2,3-d]pyrimidine-2,4(1H,3H)-dione] registered a melting point of 100 to 105 °C. `CC(C)Cn1c(=O)n(C)c(=O)c2cc(C3OC(=N)c4ccccc43)sc21` (stereo not shown) [Example 81, 6-(3-Imino-1,3-dihydro-benzo[c]furan-1-yl)-3-methyl-1-(2-methylpropyl)thieno[2,3-d]pyrimidine-2,4(1H, 3H)-dione] displayed a melting point of 152 °C. On to `CC(C)Cn1c(=O)n(C)c(=O)c2c(Sc3cccc(O)c3)c(Cc3cccc4ccccc34)sc21` [Example 27, 5-[(3-Hydroxyphenyl)thio]-3-methyl-1-(2-methylpropyl)-6-(1-naphthalenylmethyl)thieno[2,3-d]pyrimidine-2,4-(1H,3H)-dione], for which the melting point fell in the range of 200 to 201 °C. The figure for `CC(C)Cn1c(=O)n(C)c(=O)c2c(SCCCO)c(Cc3cccc(F)c3)sc21` [Example 86] is 99 to 100 °C; for `CC(C)Cn1c(=O)n(C)c(=O)c2c(SCCCN=[N+]=[N-])c(Cc3cccc4ccccc34)sc21` [Example 39, 5-[(3-Azidopropyl)thio]-3-methyl-1-(2-methylpropyl)-6-(1-naphthalenylmethyl)thieno[2,3-d]pyrimidine-2,4(1H,3H)-dione] it is 94 to 96 °C; for `CC(C)Cn1c(=O)n(C)c(=O)c2c(Sc3ccccn3)c(Cc3cccc4ccccc34)sc21` [Example 5, 3-Methyl-1-(2-methylpropyl)-6-(1-naphthalenylmethyl)-5-[(2-pyridinyl)thio]thieno[2,3-d]pyrimidine-2,4(1H,3H)-dione] it is 148 to 149 °C. In the case of `CC(C)Cn1c(=O)n(C)c(=O)c2cc(Cc3cccc4ccccc34)sc21` [Example 4], the melting point lay in the range of 137 to 138 °C.

Compound `COC(=O)CCCS(=O)(=O)c1c(Cc2cccc3ccccc23)sc2c1c(=O)n(C)c(=O)n2CC(C)C` [Example 10, Methyl 4-[(1,2,3,4-tetrahydro-3-methyl-1-(2-methylpropyl)-6-(1-naphthalenylmethyl)-2,4-dioxothieno[2,3-d]pyrimidin-5-yl)sulfonyl]butanoate] showed a melting point of 122 to 124 °C.

With `CC(C)Cn1c(=O)n(C)c(=O)c2cc(Cc3ccccc3C(N)=O)sc21` [Example 82, 2-[(1,2,3,4-tetrahydro-3-methyl-1-(2-methylpropyl)-2,4-dioxothieno[2,3-d]pyrimidin-6-yl)methyl]benzamido], the melting point was 183 °C. As for `CC(C)Cn1c(=O)n(C)c(=O)c2c(S(=O)(=O)CCCC(=O)O)c(Cc3cccc4ccccc34)sc21` [Example 11, 4-[(1,2,3,4-Tetrahydro-3-methyl-1-(2-methylpropyl)-6-(1-naphthalenylmethyl)-2,4-dioxothieno[2,3-d]pyrimidin-5-yl)sulfonyl]butanoic acid], the melting point was 174 to 181 °C.

The compound `CC(C)Cn1c(=O)n(C)c(=O)c2c(Sc3cccc[n+]3[O-])c(Cc3cccc4ccccc34)sc21` [Example 38, 2-{[1,2,3,4-Tetrahydro-3-methyl-1-(2-methylpropyl)-6-(1-naphthalenylmethyl)-2,4-dioxothieno[2,3-d]pyrimidin-5-yl]thio}pyridine N-oxide] had a melting point of 228 to 229 °C. `CC(C)Cn1c(=O)n(C)c(=O)c2c(C(=O)NCCO)c(Cc3cccc4ccccc34)sc21` [Example 16, 1,2,3,4-Tetrahydro-N-(2-hydroxyethyl)-3-methyl-1-(2-methylpropyl)-6-(1-naphthalenylmethyl)-2,4-dioxothieno[2,3-d]pyrimidine-5-carboxamide] gave a melting point of 193 to 194 °C. The result for `CC(C)Cn1c(=O)n(C)c(=O)c2c(SCC(C)O)c(Cc3cccc4ccccc34)sc21` (racemic) [Example 15, (±) 5-[(2-Hydroxypropyl)thio]-3-methyl-1-(2-methylpropyl)-6-(1-naphthalenylmethyl)thieno[2,3-d]pyrimidine-2,4(1H,3H)-dione] reads 126 to 128 °C; that for `CC(C)Cn1c(=O)n(C)c(=O)c2cc(C(O)c3ccccc3)sc21` (stereo not shown) [Example 14, 6-[(1-Hydroxy-1-phenyl)methyl]-3-methyl-1-(2-methylpropyl)thieno[2,3-d]pyrimidine-2,4(1H,3H)-dione], 140 to 142 °C; that for `CC(C)Cn1c(=O)n(C)c(=O)c2c(Sc3cccc(N(S(C)(=O)=O)S(C)(=O)=O)c3)c(Cc3cccc4ccccc34)sc21` [Example 32, 5-{[3-{(Bis-methanesulfonyl)amino}phenyl]thio}-3-methyl-1-(2-methylpropyl)-6-(1-naphthalenylmethy)theino[2,3d]pyrimidine-2,4(1H, 3H)-dione], 216 to 217 °C. `CC(C)Cn1c(=O)n(C)c(=O)c2c(NC(=O)NCCO)c(Cc3cccc4ccccc34)sc21` [Example 48] gave a melting point of 227 to 228 °C.

The compound `CC(=O)Nc1cccc(Sc2c(Cc3cccc4ccccc34)sc3c2c(=O)n(C)c(=O)n3CC(C)C)c1` [Example 34, 5-[(3-Acetamidophenyl)thio]-3-methyl-1-(2-methylpropyl)-6-(1-naphthalenylmethyl)thieno[2,3-d]pyrimidine-2,4-(1H, 3H)-dione] gave a melting point of 173 to 174 °C.

`CC(=O)Nc1cccc(C(=O)Nc2ccc(Cc3cc4c(=O)n(C)c(=O)n(CC(C)C)c4s3)cc2)c1` [Example 94] displayed a melting point of 230 °C. `CC(C)Cn1c(=O)n(C)c(=O)c2c(NC(=O)N(C)CCO)c(Cc3cccc4ccccc34)sc21` [Example 50]: the melting point fell in the range of 151 to 152 °C. In the case of `COC(=O)Nc1cccc(Sc2c(Cc3cccc4ccccc34)sc3c2c(=O)n(C)c(=O)n3CC(C)C)c1` [Example 33], the melting point is 167 to 168 °C. As for `CC(C)Cn1c(=O)n(C)c(=O)c2c(C(=O)N(C)C)c(Cc3ccccc3)sc21` [Example 89, 1,2,3,4-Tetrahydro-3,N,N-trimethyl-1-(2-methylpropyl)-6-phenylmethy-2,4-dioxothieno[2,3-d]pyrimidine-5-carboxamide], the melting point is 144 to 146 °C.

For the compound `CC(C)Cn1c(=O)n(C)c(=O)c2c(SCCCC(=O)O)c(Cc3cccc4ccccc34)sc21` [Example 8, 4-[(1,2,3,4-Tetrahydro-3-methyl-1-(2-methylpropyl)-6-(1-naphthalenylmethyl)-2,4-dioxothieno[2,3-d]pyrimidin-5-yl)thio]butanoic acid], the melting point fell in the range of 172 to 173 °C.
